{"source": "patent US20190105367A1", "about": "“ANTIMICROBIAL 4-OXOQUINOLIZINES” (Emergent Product Development Gaithersburg Inc., priority 2011, published 2019)", "key": {"A. baumannii A14 [1]": {"system": "A. baumannii A14", "assay": "MIC without and with sub-inhibitory polymyxin B (Example 4)", "type": "cell-based, Acinetobacter baumannii", "conditions": "A. baumannii A14; +0.06 μg/ml PB; 2nd experiment"}, "A. baumannii A387": {"system": "A. baumannii A387", "assay": "MIC without and with sub-inhibitory polymyxin B (Example 4)", "type": "cell-based, Acinetobacter baumannii", "conditions": "A. baumannii A387"}, "A. baumannii A472": {"system": "A. baumannii A472", "assay": "Preliminary MBC without and with sub-inhibitory polymyxin B (Example 4)", "type": "cell-based, Acinetobacter baumannii", "conditions": "Acinetobacter baumannii, A472, A. baumannii A472; +[…] PB; preliminary MBC; 2nd experiment; read-out: MBC"}, "A. baumannii A14 [2]": {"system": "A. baumannii A14", "assay": "Preliminary MBC without and with sub-inhibitory polymyxin B (Example 4)", "type": "cell-based, Acinetobacter baumannii", "conditions": "A. baumannii A14; +0.06 μg/ml polymyxin B; preliminary MBC; 1st experiment"}, "A. baumannii A390": {"system": "A. baumannii A390", "assay": "MIC without and with sub-inhibitory polymyxin B (Example 4)", "type": "cell-based, Acinetobacter baumannii", "conditions": "A. baumannii A390; +0.06 μg/ml PB; 2nd experiment"}, "A. baumannii A14 [3]": {"system": "A. baumannii A14", "assay": "MIC without and with sub-inhibitory polymyxin B (Example 4)", "type": "cell-based, Acinetobacter baumannii", "conditions": "1st experiment"}, "A. baumannii ATCC 19606": {"system": "A. baumannii ATCC 19606", "assay": "MIC without and with sub-inhibitory polymyxin B (Example 4)", "type": "cell-based, Acinetobacter baumannii", "conditions": "A. baumannii ATCC 19606"}, "A. baumannii A329 [4]": {"system": "A. baumannii A329", "assay": "MIC without and with sub-inhibitory polymyxin B (Example 4)", "type": "cell-based, Acinetobacter baumannii", "conditions": "A. baumannii A329; +0.06 μg/ml PB; 2nd experiment"}, "A. baumannii NCTC 13301 [5]": {"system": "A. baumannii NCTC 13301", "assay": "MIC without and with sub-inhibitory polymyxin B (Example 4)", "type": "cell-based, Acinetobacter baumannii", "conditions": "+[…] PB, 2nd experiment"}, "A. baumannii NCTC 13301 [6]": {"system": "A. baumannii NCTC 13301", "assay": "Preliminary MBC without and with sub-inhibitory polymyxin B (Example 4)", "type": "cell-based, Acinetobacter baumannii", "conditions": "Acinetobacter baumannii, NCTC13301, A. baumannii NCTC 13301; +[…] PB; preliminary MBC; 2nd experiment; read-out: MBC", "experimental": "(§1) The plates were incubated for 18-20 hours at 37° C. The MBC was read as the lowest concentration at which colony growth was ca. 90% less than the positive control (i.e. usually where single colonies or no colonies were observed)."}, "A. baumannii A14 [7]": {"system": "A. baumannii A14", "assay": "Preliminary MBC without and with sub-inhibitory polymyxin B (Example 4)", "type": "cell-based, Acinetobacter baumannii", "conditions": "A. baumannii A14, +0.06 μg/ml PB, 2nd experiment", "experimental": "as §1"}, "[8]": {"system": "Acinetobacter sp. (H064200250)", "assay": "MIC without and with sub-inhibitory polymyxin B (Example 4)", "type": "cell-based"}, "A. baumannii A473": {"system": "A. baumannii A473", "assay": "MIC without and with sub-inhibitory polymyxin B (Example 4)", "type": "cell-based, Acinetobacter baumannii", "conditions": "A. baumannii A473; +0.06 μg/ml PB; 2nd experiment"}, "A. baumannii NCTC 13301 [9]": {"system": "A. baumannii NCTC 13301", "assay": "MIC without and with sub-inhibitory polymyxin B (Example 4)", "type": "cell-based, Acinetobacter baumannii"}, "A. baumannii A489 [10]": {"system": "A. baumannii A489", "assay": "Preliminary MBC without and with sub-inhibitory polymyxin B (Example 4)", "type": "cell-based, Acinetobacter baumannii", "conditions": "Acinetobacter baumannii"}, "A. baumannii J2 [11]": {"system": "A. baumannii J2", "assay": "Preliminary MBC without and with sub-inhibitory polymyxin B (Example 4)", "type": "cell-based, Acinetobacter baumannii", "conditions": "Acinetobacter baumannii"}, "[12]": {"system": "Acinetobacter sp. (H064200250)", "assay": "Preliminary MBC without and with sub-inhibitory polymyxin B (Example 4)", "type": "cell-based", "conditions": "Acinetobacter, Acinetobacter spp. H064200250 (OXA51); +[…] PB; preliminary MBC; 2nd experiment; read-out: MBC", "experimental": "as §1"}, "[13]": {"system": "strains of A. baumannii and one strain of Acinetobacter sp.", "assay": "MIC with sub-inhibitory concentrations (0.25x MIC) of polymyxin B, panel of Acinetobacter strains (Example 4)", "type": "cell-based"}, "A. baumannii A329 [14]": {"system": "A. baumannii A329", "assay": "Preliminary MBC without and with sub-inhibitory polymyxin B (Example 4)", "type": "cell-based, Acinetobacter baumannii", "conditions": "Acinetobacter baumannii, A329, A. baumannii A329, +0.06 μg/ml PB, 2nd experiment, read-out: MBC"}, "A. baumannii A489 [15]": {"system": "A. baumannii A489", "assay": "MIC without and with sub-inhibitory polymyxin B (Example 4)", "type": "cell-based, Acinetobacter baumannii", "conditions": "for MIC without PB/MIC + PB: A. baumannii A489; for MIC: Acinetobacter baumannii"}, "A. baumannii J2 [16]": {"system": "A. baumannii J2", "assay": "MIC without and with sub-inhibitory polymyxin B (Example 4)", "type": "cell-based, Acinetobacter baumannii", "conditions": "for MIC without PB/MIC + PB: A. baumannii J2; for MIC: Acinetobacter baumannii"}, "[17]": {"conditions": "ratio, PB 0.06 μg/ml, 1st experiment"}}, "note": "Read-outs that look alike come from different tables or passages of the source.", "data": [{"smiles": "C[C@H]1COc2c(N3CCN(C)CC3)c(F)cc3c(=O)c(C(=O)O)cn1c23", "note": "[Levofloxacin, reference compound]", "values": [{"measurement": "MIC", "setting": "A. baumannii A14 [1]", "value": 16.00, "unit": "µg/mL"}, {"measurement": "MIC without PB/MIC + PB", "setting": "A. baumannii A14 [1]", "value": 2}, {"measurement": "MIC without PB/MIC + PB", "setting": "A. baumannii A387; +0.06 μg/ml PB, 2nd experiment", "value": 1}, {"measurement": "MIC without PB/MIC + PB", "setting": "A. baumannii A387; [17]", "value": 1}, {"measurement": "MBC", "setting": "A. baumannii A472", "value": 4, "unit": "µg/mL"}, {"measurement": "MBC +0.06 μg/ml PB", "setting": "A. baumannii A14 [2]", "value": 32, "unit": "µg/mL"}, {"measurement": "MIC without PB/MIC + PB", "setting": "A. baumannii A390", "value": 2}, {"measurement": "MIC +0.06 μg/ml PB", "setting": "A. baumannii A14 [3]; +0.06 μg/ml polymyxin B", "value": 32, "unit": "µg/mL"}, {"measurement": "MIC without PB/MIC + PB", "setting": "A. baumannii A14 [3]; ratio, PB 0.06 μg/ml", "value": 1}, {"measurement": "MIC without PB/MIC + PB", "setting": "A. baumannii ATCC 19606; +0.06 μg/ml PB, 2nd experiment", "value": 1}, {"measurement": "MIC without PB/MIC + PB", "setting": "A. baumannii ATCC 19606; [17]", "value": 1}, {"measurement": "MIC without PB/MIC + PB", "setting": "A. baumannii A329 [4]", "value": 0.5}, {"measurement": "MIC without PB/MIC + PB", "setting": "A. baumannii NCTC 13301 [5]; A. baumannii NCTC 13301", "value": 4}, {"measurement": "MIC", "setting": "A. baumannii NCTC 13301 [5]; Acinetobacter baumannii, NCTC13301, A. baumannii NCTC 13301, read-out: MIC", "value": 8, "unit": "µg/mL"}, {"measurement": "MBC", "setting": "A. baumannii NCTC 13301 [6]", "value": 4, "unit": "µg/mL"}, {"measurement": "MBC", "setting": "A. baumannii A14 [7]", "value": 16.00, "unit": "µg/mL"}, {"measurement": "MIC without PB/MIC + PB", "setting": "[8]; Acinetobacter spp. H064200250 (OXA51), +[…] PB, 2nd experiment", "value": 2}, {"measurement": "MIC without PB/MIC + PB", "setting": "[8]; Acinetobacter spp. H064200250, ratio, PB […], 1st experiment", "value": 1}, {"measurement": "MIC", "setting": "[8]; Acinetobacter, Acinetobacter spp. H064200250 (OXA51), +[…] PB, 2nd experiment, read-out: MIC", "value": 8, "unit": "µg/mL"}, {"measurement": "MIC without PB/MIC + PB", "setting": "A. baumannii A473", "value": 1}, {"measurement": "MIC without PB/MIC + PB", "setting": "A. baumannii NCTC 13301 [9]; A. baumannii NCTC 13301, ratio, PB […], 1st experiment", "value": 2}, {"measurement": "MIC", "setting": "A. baumannii NCTC 13301 [9]; Acinetobacter baumannii, NCTC13301, read-out: MIC +[…] PB", "value": 16, "unit": "µg/mL"}, {"measurement": "MBC", "setting": "A. baumannii A489 [10]; A489, A. baumannii A489, +[…] PB, preliminary MBC, 2nd experiment, read-out: MBC", "value": 4, "unit": "µg/mL"}, {"measurement": "MBC", "setting": "A. baumannii A489 [10]; A489, read-out: MBC +[…] PB", "value": 8, "unit": "µg/mL"}, {"measurement": "MBC", "setting": "A. baumannii J2 [11]; J2, A. baumannii J2, +[…] PB, preliminary MBC, 2nd experiment, read-out: MBC", "value": 4, "unit": "µg/mL"}, {"measurement": "MBC", "setting": "A. baumannii J2 [11]; J2, read-out: MBC +[…] PB", "value": 8, "unit": "µg/mL"}, {"measurement": "MBC", "setting": "[12]", "value": 8, "unit": "µg/mL"}, {"measurement": "Range ratios MIC without PB/MIC with PB Oct. 1, 2008 n = 8", "setting": "[13]; 1st experiment", "value": "1-4"}, {"measurement": "MIC range with PB (0.25x MIC) Oct. 1, 2008 n = 8", "setting": "[13]; 1st experiment, […] polymyxin B, ATCC 19606, A329, A390 and A473 not taken", "value": "4 to 32", "unit": "µg/mL"}, {"measurement": "Range ratios MIC without PB/MIC with PB Oct. 14, 2008 n = 11", "setting": "[13]; 2nd experiment", "value": "0.5-8"}, {"measurement": "MIC range with PB (0.25x MIC) Oct. 14, 2008 n = 11", "setting": "[13]; 2nd experiment, 0.06 μg/ml polymyxin B, all strains except the ATCC strain", "value": "4 to 32", "unit": "µg/mL"}, {"measurement": "MBC", "setting": "A. baumannii A329 [14]", "value": 16, "unit": "µg/mL"}, {"measurement": "MIC without PB/MIC + PB", "setting": "A. baumannii A489 [15]; +[…] PB, 2nd experiment", "value": 4}, {"measurement": "MIC without PB/MIC + PB", "setting": "A. baumannii A489 [15]; ratio, PB […], 1st experiment", "value": 2}, {"measurement": "MIC", "setting": "A. baumannii A489 [15]; A489, A. baumannii A489, +[…] PB, 2nd experiment, read-out: MIC", "value": 8, "unit": "µg/mL"}, {"measurement": "MIC", "setting": "A. baumannii A489 [15]; A489, read-out: MIC +[…] PB, A. baumannii A489, +[…] polymyxin B, 1st experiment", "value": 8, "unit": "µg/mL"}, {"measurement": "MIC without PB/MIC + PB", "setting": "A. baumannii J2 [16]; +[…] PB, 2nd experiment", "value": 8}, {"measurement": "MIC without PB/MIC + PB", "setting": "A. baumannii J2 [16]; ratio, PB […], 1st experiment", "value": 4}, {"measurement": "MIC", "setting": "A. baumannii J2 [16]; J2, A. baumannii J2, +[…] PB, 2nd experiment, read-out: MIC", "value": 4, "unit": "µg/mL"}, {"measurement": "MIC", "setting": "A. baumannii J2 [16]; J2, read-out: MIC +[…] PB, A. baumannii J2, +[…] polymyxin B, 1st experiment", "value": 8, "unit": "µg/mL"}]}]}
